Experimental findings from patent US12319659B2, “Selective ligand for dopamine D3 receptor, preparation method therefor, and pharmaceutical application thereof” (Shenzhen Linglan Bio-Pharmaceutical Technology Co., Ltd, priority 2017, dated 2025) are described below.

Where a name gives a salt, the structure may show the parent alone. Bounds are passed on as bounds.

T2 sequence (P35462 whole entry): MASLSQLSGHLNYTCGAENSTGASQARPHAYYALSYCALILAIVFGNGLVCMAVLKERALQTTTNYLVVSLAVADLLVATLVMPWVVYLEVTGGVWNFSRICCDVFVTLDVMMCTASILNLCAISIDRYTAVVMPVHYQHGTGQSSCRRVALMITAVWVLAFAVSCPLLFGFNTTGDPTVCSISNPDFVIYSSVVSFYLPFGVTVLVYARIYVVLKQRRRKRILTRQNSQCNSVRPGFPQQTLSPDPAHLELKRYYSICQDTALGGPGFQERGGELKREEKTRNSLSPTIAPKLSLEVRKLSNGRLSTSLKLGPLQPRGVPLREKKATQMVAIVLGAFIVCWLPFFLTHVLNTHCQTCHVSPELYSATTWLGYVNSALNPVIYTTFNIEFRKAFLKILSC
T1 sequence (P14416 whole entry): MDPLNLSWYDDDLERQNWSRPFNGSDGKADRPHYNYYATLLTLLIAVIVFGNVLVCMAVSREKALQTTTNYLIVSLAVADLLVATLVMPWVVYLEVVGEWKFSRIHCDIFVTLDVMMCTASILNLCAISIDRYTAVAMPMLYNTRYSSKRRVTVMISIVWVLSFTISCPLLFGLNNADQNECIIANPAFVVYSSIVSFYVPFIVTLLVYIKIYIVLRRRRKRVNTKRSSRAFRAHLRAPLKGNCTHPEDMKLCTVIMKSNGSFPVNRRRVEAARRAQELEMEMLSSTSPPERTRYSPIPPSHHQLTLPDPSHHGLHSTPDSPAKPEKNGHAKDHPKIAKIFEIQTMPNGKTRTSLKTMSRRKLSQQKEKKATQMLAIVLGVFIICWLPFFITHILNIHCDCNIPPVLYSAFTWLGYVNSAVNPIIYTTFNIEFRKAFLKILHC

One assay addresses T1, dopamine D2 receptor (Homo sapiens, UniProt P14416).
T1 construct: expressed in transfected cells; host or cells: Human embryonic kidney-293 cells
Description: Competitive inhibition test using radioligands ([3H]-sulpiride), D2 receptor. In kind it is binding. The conditions noted are these: [3H]-sulpiride competition, HEK-293 cells; read-out: KiD2R.
Description: Human embryonic kidney-293 cells were cultured in fresh MEM medium containing 10% fetal bovine serum, 100 units of penicillin, and 100 μg/mL streptomycin at 37° C. under 5% CO2. Cells were transfected with DNA plasmids of dopamine D2 and D3 receptors respectively by using polyethylenimine. After transfection for 4 hours, medium was replaced with fresh MEM medium containing fetal bovine serum and the cells were further cultured for 24 hours. The cells were seeded into 24-well plates and cultured for 14-16 hours or overnight. After the medium was discarded, the cells were rinsed with pre-cooled serum-free MEM. Radioligand ([^3H]-sulpiride) and various concentrations of compounds were added into the adherent cells, and incubated in a bath at 4° C. for 150 minutes. The cells were rinsed three times with pre-cooled MEM containing 10 mM HEPES to remove unbound ligands. After the medium was completely removed, the cells were lysed with 1% sodium lauryl sulfate. The remaining radioligands were detected with a liquid scintillation counter to calculate the relative amount of bound compounds.
`O=C1c2ccccc2C(=O)N1CCCCN1CCN(c2cccc(F)c2F)CC1` [Compound 3d, 2-(4-(4-(2,3-fluorophenyl)piperazin-1-yl)butyl)isoindoline-1,3-dione]: the Ki worked out at 2160 nM.
On to `O=C(NCCCCN1CCN(c2ccc(Cl)cc2Cl)CC1)c1cc2ccccc2[nH]1` [31k•HCl, N-(4-(4-(2,4-dichlorophenyl)piperazin-1-yl)butyl)-1H-indole-2-carboxamide, reference compound], for which the Ki was more than 23900 nM.

The assay is the same for the next values; noted with them: […], arylpiperazine-arylurea compounds at 100 nM, [3H]-sulpiride, HEK-293 cells (Table 2); read-out: D2 Receptor Displacement (%).
Consider `O=C(NCCCCN1CCN(c2ccc(Cl)cc2)CC1)Nc1nc2ccccc2s1` [Compound 21i, 1-(benzothiazol-2-yl)-3-(4-(4-(4-chlorophenyl)piperazin-1-yl)butyl)urea], for which the inhibition turned out to be 36.8 ± 6.5%.
Same read-out and setting: next, `O=C(NCCCCN1CCN(c2ccc(Cl)cc2)CC1)Nc1ccc2ccccc2n1` [7i•HCl, 1-(4-(4-(4-chlorophenyl)piperazin-1-yl)butyl)-3-(quinolin-2-yl)urea]: 13.4 ± 8.5%.
On the same count and under the same terms, the same measure for `O=C(NCCCCN1CCN(c2cccc(Cl)c2Cl)CC1)Nc1nc2ccccc2s1` [Compound 21j, 1-(benzothiazol-2-yl)-3-(4-(4-(2,3-dichlorophenyl)piperazin-1-yl)butyl)urea]: 35.5 ± 3.4%.
Same read-out and setting: the same measure for `O=C(NCCCCN1CCN(c2cccc(Cl)c2Cl)CC1)Nc1cnc2ccccc2c1` [8j•HCl, 1-(4-(4-(2,3-dichlorophenyl)piperazin-1-yl)butyl)-3-(quinolin-3-yl)urea]: 4.8 ± 4.3%; for `O=C(NCCCCN1CCN(c2ccc(Cl)cc2)CC1)Nc1cc2ccccc2cn1` [Compound 11i, 1-(4-(4-(4-chlorophenyl)piperazin-1-yl)butyl)-3-(isoquinolin-3-yl)urea]: -14.7 ± 1.8%.

The assay is the same for the next values; noted with them: […], arylpiperazine-phthalimide compounds at 100 nM, [3H]-sulpiride, HEK-293 cells (Table 1); read-out: D2 Receptor Displacement (%).
For `CCN1CCCC1CNC(=O)c1cc(S(N)(=O)=O)ccc1OC` (stereo not shown) [sulpiride, reference compound], the inhibition is 92.2 ± 0.1%.
Same read-out and setting: the same measure for `O=C1c2ccccc2C(=O)N1CCCCN1CCN(c2cccc(C(F)(F)F)c2)CC1` [Compound 3p, 2-(4-(4-(3-(trifluoromethyl)phenyl)piperazin-1-yl)butyl)isoindoline-1,3-dione]: 44 ± 1.6%; for `O=C1c2ccccc2C(=O)N1CCCCN1CCN(c2ccccc2F)CC1` [Compound 3a, 2-(4-(4-(2-fluorophenyl)piperazin-1-yl)butyl)isoindoline-1,3-dione]: 31.8 ± 3.3%; for `O=C1c2ccccc2C(=O)N1CCCCN1CCN(c2ccc(Cl)cc2F)CC1` [Compound 3m, 2-(4-(4-(4-chloro-2-fluorophenyl)piperazin-1-yl)butyl)isoindoline-1,3-dione]: 2.8 ± 12%.
On the same count and under the same terms, the same measure for `O=C1c2ccccc2C(=O)N1CCCCN1CCN(c2cc(C(F)(F)F)ccc2F)CC1` [Compound 3n, 2-(4-(4-(2-fluoro-5-(trifluoromethyl)phenyl)piperazin-1-yl)butyl)isoindoline-1,3-dione]: -4.7 ± 7.8%.
The same measure, in the same setting: next, `O=C1c2ccccc2C(=O)N1CCCCN1CCN(c2ccc(Cl)cc2Cl)CC1` [3k•HCl, 2-(4-(4-(2,4-dichlorophenyl)piperazin-1-yl)butyl)isoindoline-1,3-dione]: 30.2 ± 3.4%; `O=C1c2ccccc2C(=O)N1CCCCN1CCN(c2ccccc2Cl)CC1` [Compound 3g, 2-(4-(4-(2-chlorophenyl)piperazin-1-yl)butyl)isoindoline-1,3-dione]: 28.7 ± 3.3%.
For the compound `O=C1c2ccccc2C(=O)N1CCCCN1CCN(c2ccc(F)cc2)CC1` [Compound 3c, 2-(4-(4-(4-fluorophenyl)piperazin-1-yl)butyl)isoindoline-1,3-dione], the inhibition was -6.3 ± 4%.
Turning to `O=C1c2ccccc2C(=O)N1CCCCN1CCN(c2cccc(Cl)c2)CC1` [Compound 3h, 2-(4-(4-(3-chlorophenyl)piperazin-1-yl)butyl)isoindoline-1,3-dione], the inhibition is 64.8 ± 3.5%.
Same read-out and setting: the same measure for `O=C1c2ccccc2C(=O)N1CCCCN1CCN(c2cccc(Cl)c2Cl)CC1` [Compound 3j, 2-(4-(4-(2,3-dichlorophenyl)piperazin-1-yl)butyl)isoindoline-1,3-dione]: 70.3 ± 2.7%.

The same assay, now with this note: arylpiperazine-arylurea compounds at 100 nM, [3H]-sulpiride, HEK-293 cells (Table 2).
Consider `O=C(NCCCCN1CCN(c2ccc(Cl)cc2)CC1)Nc1nc2ccccc2s1` [21i•HCl, 1-(benzothiazol-2-yl)-3-(4-(4-(4-chlorophenyl)piperazin-1-yl)butyl)urea], for which the “D2 Receptor Displacement (%)” value is listed as 33.4 ± 5.9%.
Still for that read-out and setting: next, `O=C(NCCCCN1CCN(c2ccc(Cl)cc2Cl)CC1)Nc1nc2ccccc2s1` [Compound 21k, 1-(benzothiazol-2-yl)-3-(4-(4-(2,4-dichlorophenyl)piperazin-1-yl)butyl)urea]: 40.8 ± 5.6%; `O=C(NCCCCN1CCN(c2cccc(C(F)(F)F)c2)CC1)Nc1cnc2ccccc2c1` [8p•HCl, 1-(4-(4-(3-(trifluoromethyl)phenyl)piperazin-1-yl)butyl)-3-(quinolin-3-yl)urea]: 84.1 ± 1.8%.
As to `O=C(NCCCCN1CCN(c2cccc(Cl)c2Cl)CC1)Nc1nc2ccccc2s1` [21j•HCl, 1-(benzothiazol-2-yl)-3-(4-(4-(2,3-dichlorophenyl)piperazin-1-yl)butyl)urea], the “D2 Receptor Displacement (%)” value worked out at 52.1 ± 2.0%.
Same read-out and setting: the same measure for `O=C(NCCCCN1CCN(c2cccc(C(F)(F)F)c2)CC1)Nc1cnc2ccccc2c1` [Compound 8p, 1-(4-(4-(3-(trifluoromethyl)phenyl)piperazin-1-yl)butyl)-3-(quinolin-3-yl)urea]: −6.7 ± 4.2%.
The same measure, in the same setting: next, `O=C(NCCCCN1CCN(c2ccc(Cl)cc2Cl)CC1)Nc1nc2ccccc2s1` [21k•HCl, 1-(benzothiazol-2-yl)-3-(4-(4-(2,4-dichlorophenyl)piperazin-1-yl)butyl)urea]: 19.0 ± 1.4%.
The same measure, in the same setting: next, `O=C(NCCCCN1CCN(c2cc(C(F)(F)F)ccc2F)CC1)Nc1cnc2ccccc2c1` [Compound 8n, 1-(4-(4-(2-fluoro-5-(trifluoromethyl)phenyl)piperazin-1-yl)butyl)-3-(quinolin-3-yl)urea]: 24.9 ± 1.8%; `O=C(NCCCCN1CCN(c2cc(C(F)(F)F)ccc2F)CC1)Nc1cnc2ccccc2c1` [8n•HCl, 1-(4-(4-(2-fluoro-5-(trifluoromethyl)phenyl)piperazin-1-yl)butyl)-3-(quinolin-3-yl)urea]: 10.7 ± 4.0%.

Still in this assay, the particulars now being: arylpiperazine-phthalimide compounds at 100 nM, [3H]-sulpiride, HEK-293 cells (Table 1).
`O=C1c2ccccc2C(=O)N1CCCCN1CCN(c2cccc(F)c2F)CC1` [Compound 3d, 2-(4-(4-(2,3-fluorophenyl)piperazin-1-yl)butyl)isoindoline-1,3-dione]: the “D2 Receptor Displacement (%)” value was 17.7 ± 3.7%.
Still for that read-out and setting: next, `O=C1c2ccccc2C(=O)N1CCCCN1CCN(c2ccc(Cl)cc2)CC1` [Compound 3i, 2-(4-(4-(4-chlorophenyl)piperazin-1-yl)butyl)isoindoline-1,3-dione]: 59.2 ± 18.3%.
Still for that read-out and setting: next, `O=C1c2ccccc2C(=O)N1CCCCN1CCN(c2cccc(C(F)(F)F)c2)CC1` [3p•HCl, 2-(4-(4-(3-(trifluoromethyl)phenyl)piperazin-1-yl)butyl)isoindoline-1,3-dione]: 37.9 ± 2.8%.
Still for that read-out and setting: next, `O=C1c2ccccc2C(=O)N1CCCCN1CCN(c2c(F)cccc2F)CC1` [Compound 3f, 2-(4-(4-(2,6-fluorophenyl)piperazin-1-yl)butyl)isoindoline-1,3-dione]: 10.3 ± 6.1%; `O=C1c2ccccc2C(=O)N1CCCCN1CCN(c2ccc(Cl)cc2)CC1` [3i•HCl, 2-(4-(4-(4-chlorophenyl)piperazin-1-yl)butyl)isoindoline-1,3-dione]: 16.3 ± 4.2%.
Take `O=C1c2ccccc2C(=O)N1CCCCN1CCN(c2ccc(F)cc2F)CC1` [Compound 3e, 2-(4-(4-(2,4-fluorophenyl)piperazin-1-yl)butyl)isoindoline-1,3-dione]: the “D2 Receptor Displacement (%)” value was 4.8 ± 6.5%.

A further assay addresses T2, dopamine D3 receptor (Homo sapiens, UniProt P35462). The experiment in a line: cell-based.
Settings: not given
`O=C(NCCCCN1CCN(c2cccc(Cl)c2Cl)CC1)c1cc2ccccc2[nH]1` [Compound 31j, N-(4-(4-(2,3-dichlorophenyl)piperazin-1-yl)butyl)-1H-indole-2-carboxamide, reference compound] had a Ki of 6210 nM.

In a further assay the target is T2, dopamine D3 receptor.
Assay: not given
Settings: not given
`O=C(NCCCCN1CCN(c2cccc(Cl)c2Cl)CC1)c1cc2ccccc2[nH]1` [31j•HCl, N-(4-(4-(2,3-dichlorophenyl)piperazin-1-yl)butyl)-1H-indole-2-carboxamide, reference compound] showed a Ki of 15.6 nM.
Same read-out and setting: next, `O=C1c2ccccc2C(=O)N1CCCCN1CCN(c2cccc(F)c2F)CC1` [Compound 3d, 2-(4-(4-(2,3-fluorophenyl)piperazin-1-yl)butyl)isoindoline-1,3-dione]: 19.3 nM.
